Measured values: patent US5278308A, “Iodine derivatives of tetrabenazine” (The Trustees of The University of Pennsylvania, priority 1992, dated 1994)
pKd: −log10 of the molar value.

Key:
[1] = system: rat plasma; assay: Protein binding by TCA (10% rat plasma, 30 min, 37° C.); format: in vitro ADME; conditions: TCA precipitation
Procedure: One ml of 10% rat plasma was mixed with [^123 I]I-TBZ in a test tube and the mixture was incubated for 30 minutes at 37° C. To the mixture 0.4 mL of 10% trichloroacetic acid (TCA) was added. The test tube was centrifuged for 10 min. (4,000 rpm), and the top aqueous layer was removed to another test tube for counting The precipitate was washed with water (0.5 mL×2). The combined water and top aqueous layer was counted. The residual precipitate was also counted. The protein binding was obtained by dividing counts in precipitate with counts in aqueous layers.

[2] = system: rat plasma; assay: Protein binding by Filter (50% rat plasma, Amicon micropartition system); format: in vitro ADME; conditions: 30 min, 37° C.
Procedure: One mL of rat plasma (50%) was mixed with [^123 I]I-TBZ in a test tube. After 30 min incubation at 37° C., 50 uL ×3 of liquid was removed as initial dose standard (I.D.); the rest was passed through an Amicon micropartition system (Amicon division, W. R. Grace, Danvers, Mass.) by centrifuging for 20 minutes (2,000 rpm) at 0° C. Four samples (50 uL each) were removed from the filtered solution and counted. The protein binding (% bound) was calculated by using the unit counts in filtrate divided by unit counts in ID.

[3] = Biodistribution in rats (iv injection); format: in vivo; conditions: rat, iv
Procedure: While under ether anesthesia, each rat was injected in the femoral vein with 0.2 mL saline solution containing [^123 I]I-TBZ (1-5uCi) either racemic mixture, peak-A or peak-B. The rats were sacrificed at various time points postinjection by cardiac excision. The tissues were weighed and the radioactivity was measured with a Canberra gamma counter (Model 5000). The percent dose per organ was calculated by a comparison of the tissue counts to suitably diluted aliquots of the injected material. Total activities of blood and muscle were calculated assuming that they were 7% and 40% of total body weight, respectively Results are presented in Tables 3, 4A and 4B.

[4] = Regional brain distribution in rats (dissection, iv injection); format: in vivo; conditions: rat, listed as I-TBZ peak B
Procedure: Regional brain distribution of [^123 I]I-TBZ (with either a racemic mixture, peak A or B) in rats was obtained after an iv injection. By dissecting, weighing and counting samples from different brain regions (cortex, striatum, hippocampus and cerebellum), % dose/gram of the samples was calculated by comparing the sample counts with the counts of the diluted initial dose. The ratio of uptake in each region was obtained by dividing % dose/gram of each region with that of the cerebellum. The effect of tetrahydrobenazine on the uptake of peak A or peak B was investigated by pretreating the rats with the TBZ 3 mg/rat at 3 min before iv injection of [^123 I]I-TBZ. At 20 min. post injection the rats were dissected and the regional brain dissection was carried out as above.

[5] = system: monoamine transporter of chromaffin granules and CNS synaptic vesicles; conditions: cited from earlier work
[6] = normal and lesioned brain sections; cited from earlier work

**Q.** With `COc1cc2c(cc1OC)C1CC(O)(C=C[123I])C(CC(C)C)CN1CC2` (single isomer, unassigned) [Peak B] as the molecule, how does the “Protein binding, by TCA” value [1] read?
**A.** 40.8 ± 0.6 % bound

**Q.** And the “Protein binding, by Filter” value [2]?
**A.** 83.7 ± 0.8 % bound

**Q.** And the “Blood uptake (blood assumed 7% of body weight)” value ([3]; 5 min)?
**A.** 4.74 ± 0.36 % Dose/organ

**Q.** And the “Br/Bl (% dose/gram ratio)” value ([3]; 5 min)?
**A.** 1.54 ± 0.16

**Q.** And the Brain uptake ([3]; 5 min)?
**A.** 0.74 ± 0.07 % Dose/organ

**Q.** And the Heart uptake ([3]; 5 min)?
**A.** 0.63 ± 0.03 % Dose/organ

**Q.** What about the Kidney uptake ([3]; 5 min) of the same molecule?
**A.** 2.18 ± 0.34 % Dose/organ

**Q.** What about the Liver uptake ([3]; 5 min) of the same molecule?
**A.** 22.61 ± 1.85 % Dose/organ

**Q.** What about the Lung uptake ([3]; 5 min) of the same molecule?
**A.** 2.02 ± 0.22 % Dose/organ

**Q.** What about the “Muscle uptake (muscle assumed 40% of body weight)” value ([3]; 5 min) of the same molecule?
**A.** 21.12 ± 1.36 % Dose/organ

**Q.** What about the Skin uptake ([3]; 5 min) of the same molecule?
**A.** 7.64 ± 3.09 % Dose/organ

**Q.** What about the Spleen uptake ([3]; 5 min) of the same molecule?
**A.** 0.46 ± 0.03 % Dose/organ

**Q.** What about the Thyroid uptake ([3]; 5 min) of the same molecule?
**A.** 0.07 ± 0.01 % Dose/organ

**Q.** What about the “Blood uptake (blood assumed 7% of body weight)” value ([3]; 20 min) of the same molecule?
**A.** 2.76 ± 0.42 % Dose/organ

**Q.** And the “Br/Bl (% dose/gram ratio)” value ([3]; 20 min)?
**A.** 1.06 ± 0.22

**Q.** What about the Brain uptake ([3]; 20 min) of the same molecule?
**A.** 0.27 ± 0.02 % Dose/organ

**Q.** And the Heart uptake ([3]; 20 min)?
**A.** 0.35 ± 0.02 % Dose/organ

**Q.** What about the Kidney uptake ([3]; 20 min) of the same molecule?
**A.** 1.37 ± 0.11 % Dose/organ

**Q.** What about the Liver uptake ([3]; 20 min) of the same molecule?
**A.** 17.25 ± 1.25 % Dose/organ

**Q.** What about the Lung uptake ([3]; 20 min) of the same molecule?
**A.** 1.05 ± 0.04 % Dose/organ

**Q.** And the “Muscle uptake (muscle assumed 40% of body weight)” value ([3]; 20 min)?
**A.** 19.78 ± 1.90 % Dose/organ

**Q.** What about the Skin uptake ([3]; 20 min) of the same molecule?
**A.** 8.37 ± 1.15 % Dose/organ

**Q.** And the Spleen uptake ([3]; 20 min)?
**A.** 0.28 ± 0.03 % Dose/organ

**Q.** And the Thyroid uptake ([3]; 20 min)?
**A.** 0.05 ± 0.01 % Dose/organ

**Q.** And the “Blood uptake (blood assumed 7% of body weight)” value ([3]; 60 min)?
**A.** 1.89 ± 0.13 % Dose/organ

**Q.** And the “Br/Bl (% dose/gram ratio)” value ([3]; 60 min)?
**A.** 0.47 ± 0.05

**Q.** And the Brain uptake ([3]; 60 min)?
**A.** 0.087 ± 0.01 % Dose/organ

**Q.** What about the Heart uptake ([3]; 60 min) of the same molecule?
**A.** 0.16 ± 0.01 % Dose/organ

**Q.** What about the Kidney uptake ([3]; 60 min) of the same molecule?
**A.** 0.70 ± 0.06 % Dose/organ

**Q.** What about the Liver uptake ([3]; 60 min) of the same molecule?
**A.** 8.36 ± 1.01 % Dose/organ

**Q.** What about the Lung uptake ([3]; 60 min) of the same molecule?
**A.** 0.46 ± 0.03 % Dose/organ

**Q.** What about the “Muscle uptake (muscle assumed 40% of body weight)” value ([3]; 60 min) of the same molecule?
**A.** 11.80 ± 2.02 % Dose/organ

**Q.** What about the Skin uptake ([3]; 60 min) of the same molecule?
**A.** 5.45 ± 0.64 % Dose/organ

**Q.** What about the Spleen uptake ([3]; 60 min) of the same molecule?
**A.** 0.14 ± 0.03 % Dose/organ

**Q.** What about the Thyroid uptake ([3]; 60 min) of the same molecule?
**A.** 0.13 ± 0.03 % Dose/organ

**Q.** What about the “Blood uptake (blood assumed 7% of body weight)” value ([3]; 120 min) of the same molecule?
**A.** 1.89 ± 0.34 % Dose/organ

**Q.** And the “Br/Bl (% dose/gram ratio)” value ([3]; 120 min)?
**A.** 0.25 ± 0.03

**Q.** And the Brain uptake ([3]; 120 min)?
**A.** 0.042 ± 0.008 % Dose/organ

**Q.** And the Heart uptake ([3]; 120 min)?
**A.** 0.09 ± 0.02 % Dose/organ

**Q.** What about the Kidney uptake ([3]; 120 min) of the same molecule?
**A.** 0.36 ± 0.09 % Dose/organ

**Q.** What about the Liver uptake ([3]; 120 min) of the same molecule?
**A.** 4.35 ± 0.50 % Dose/organ

**Q.** What about the Lung uptake ([3]; 120 min) of the same molecule?
**A.** 0.27 ± 0.08 % Dose/organ

**Q.** And the “Muscle uptake (muscle assumed 40% of body weight)” value ([3]; 120 min)?
**A.** 5.72 ± 1.20 % Dose/organ

**Q.** What about the Skin uptake ([3]; 120 min) of the same molecule?
**A.** 4.80 ± 0.46 % Dose/organ

**Q.** What about the Spleen uptake ([3]; 120 min) of the same molecule?
**A.** 0.06 ± 0.01 % Dose/organ

**Q.** And the Thyroid uptake ([3]; 120 min)?
**A.** 0.47 ± 0.14 % Dose/organ

**Q.** What about the “Regional brain uptake, Rem” value ([4]; 5 min) of the same molecule?
**A.** 0.465 ± 0.070 % Dose/g

**Q.** What about the “Regional brain uptake, cerebellum” value ([4]; 5 min) of the same molecule?
**A.** 0.449 ± 0.067 % Dose/g

**Q.** And the “Regional brain uptake, cortex” value ([4]; 5 min)?
**A.** 0.514 ± 0.066 % Dose/g

**Q.** And the “Regional brain uptake, hippocampus” value ([4]; 5 min)?
**A.** 0.458 ± 0.074 % Dose/g

**Q.** And the “Regional brain uptake, striatum” value ([4]; 5 min)?
**A.** 0.482 ± 0.066 % Dose/g

**Q.** And the “Str./Cb (% dose/gram ratio)” value ([4]; 5 min)?
**A.** 1.07

**Q.** What about the “Regional brain uptake, Rem” value ([4]; 20 min) of the same molecule?
**A.** 0.172 ± 0.011 % Dose/g

**Q.** What about the “Regional brain uptake, cerebellum” value ([4]; 20 min) of the same molecule?
**A.** 0.162 ± 0.017 % Dose/g

**Q.** And the “Regional brain uptake, cortex” value ([4]; 20 min)?
**A.** 0.183 ± 0.012 % Dose/g

**Q.** And the “Regional brain uptake, hippocampus” value ([4]; 20 min)?
**A.** 0.189 ± 0.012 % Dose/g

**Q.** And the “Regional brain uptake, striatum” value ([4]; 20 min)?
**A.** 0.189 ± 0.001 % Dose/g

**Q.** What about the “Str./Cb (% dose/gram ratio)” value ([4]; 20 min) of the same molecule?
**A.** 1.17

**Q.** What about the “Regional brain uptake, Rem” value ([4]; 60 min) of the same molecule?
**A.** 0.057 ± 0.006 % Dose/g

**Q.** What about the “Regional brain uptake, cerebellum” value ([4]; 60 min) of the same molecule?
**A.** 0.055 ± 0.005 % Dose/g

**Q.** And the “Regional brain uptake, cortex” value ([4]; 60 min)?
**A.** 0.060 ± 0.007 % Dose/g

**Q.** And the “Regional brain uptake, hippocampus” value ([4]; 60 min)?
**A.** 0.058 ± 0.009 % Dose/g

**Q.** And the “Regional brain uptake, striatum” value ([4]; 60 min)?
**A.** 0.062 ± 0.002 % Dose/g

**Q.** And the “Str./Cb (% dose/gram ratio)” value ([4]; 60 min)?
**A.** 1.13

**Q.** And the “Regional brain uptake, Rem” value ([4]; 120 min)?
**A.** 0.027 ± 0.004 % Dose/g

**Q.** What about the “Regional brain uptake, cerebellum” value ([4]; 120 min) of the same molecule?
**A.** 0.027 ± 0.005 % Dose/g

**Q.** And the “Regional brain uptake, cortex” value ([4]; 120 min)?
**A.** 0.028 ± 0.005 % Dose/g

**Q.** And the “Regional brain uptake, hippocampus” value ([4]; 120 min)?
**A.** 0.027 ± 0.004 % Dose/g

**Q.** And the “Regional brain uptake, striatum” value ([4]; 120 min)?
**A.** 0.027 ± 0.003 % Dose/g

**Q.** And the “Str./Cb (% dose/gram ratio)” value ([4]; 120 min)?
**A.** 1.00

**Q.** Which results are given for `COc1cc2c(cc1OC)C1CC(O)C(CC(C)C)CN1CC2` (stereo not shown) [[^3 H]dihydro-TBZ, 2-hydroxy-3-(2-methylpropyl)-9,10-dimethoxy-1,3,4,6,7,11b-hexahydro-2H -benzo[a]quinolizine]?
**A.** binding affinity for the transporter (in words) [5]: does not affect the binding affinity; pKd ([5]; membranes of chromaffin granules and brain tissue samples, in vitro, read-out: binding affinity Kd): 8.05 to 8.70; Regional distribution of binding sites in brain sections (in words) [6]: corresponded to the monoamine cell bodies and nerve endings
